Source: article PMC7998669, “7-(2-Anilinopyrimidin-4-yl)-1-benzazepin-2-ones Designed by a “Cut and Glue” Strategy Are Dual Aurora A/VEGF-R Kinase Inhibitors” (Molecules, 2021)

Tests used:
Assay in all cases: radiometric 33PanQinase protein kinase assay
Assay type in all cases: biochemical
Conditions in all cases: 1 µM ATP
IGF1-R = biological target: T1, IGF1-R (Homo sapiens, UniProt P08069)
T1 construct: host or cells: Sf9 (baculovirus)

SRC = biological target: T2, SRC (Homo sapiens, UniProt P12931)
T2 construct: host or cells: Sf9 (baculovirus)

FAK = biological target: T3, FAK (Homo sapiens, UniProt Q05397)
T3 construct: host or cells: Sf9 (baculovirus)

PDK1 = biological target: T4, PDK1 (Homo sapiens, UniProt O15530)
T4 construct: host or cells: Sf9 (baculovirus)

INS-R = biological target: T5, INS-R (Homo sapiens, UniProt P06213)
T5 construct: host or cells: Sf9 (baculovirus)

EGF-R = biological target: T6, EGF-R (Homo sapiens, UniProt P00533)
T6 construct: host or cells: Sf9 (baculovirus)

MET = biological target: T7, MET (Homo sapiens, UniProt P08581)
T7 construct: host or cells: Sf9 (baculovirus)

CK2-alpha1 = biological target: T8, CK2-alpha1 (Homo sapiens, UniProt P68400)
T8 construct: host or cells: Sf9 (baculovirus)

CDK2/CycA = biological target: T9, CDK2/CycA (Homo sapiens, UniProt P24941)
T9 construct: host or cells: Sf9 (baculovirus)

EPHB4 = biological target: T10, EPHB4 (Homo sapiens, UniProt P54760)
T10 construct: host or cells: Sf9 (baculovirus)

FLT3 = biological target: T11, FLT3 (Homo sapiens, UniProt P36888)
T11 construct: host or cells: Sf9 (baculovirus)

AKT1 = biological target: T12, AKT1 (Homo sapiens, UniProt P31749)
T12 construct: host or cells: Sf9 (baculovirus)

PAK4 = biological target: T13, PAK4 (Homo sapiens, UniProt O96013)
T13 construct: host or cells: Sf9 (baculovirus)

PLK1 = biological target: T14, PLK1 (Homo sapiens, UniProt P53350)
T14 construct: host or cells: Sf9 (baculovirus)

T6 sequence (P00533 25-1210): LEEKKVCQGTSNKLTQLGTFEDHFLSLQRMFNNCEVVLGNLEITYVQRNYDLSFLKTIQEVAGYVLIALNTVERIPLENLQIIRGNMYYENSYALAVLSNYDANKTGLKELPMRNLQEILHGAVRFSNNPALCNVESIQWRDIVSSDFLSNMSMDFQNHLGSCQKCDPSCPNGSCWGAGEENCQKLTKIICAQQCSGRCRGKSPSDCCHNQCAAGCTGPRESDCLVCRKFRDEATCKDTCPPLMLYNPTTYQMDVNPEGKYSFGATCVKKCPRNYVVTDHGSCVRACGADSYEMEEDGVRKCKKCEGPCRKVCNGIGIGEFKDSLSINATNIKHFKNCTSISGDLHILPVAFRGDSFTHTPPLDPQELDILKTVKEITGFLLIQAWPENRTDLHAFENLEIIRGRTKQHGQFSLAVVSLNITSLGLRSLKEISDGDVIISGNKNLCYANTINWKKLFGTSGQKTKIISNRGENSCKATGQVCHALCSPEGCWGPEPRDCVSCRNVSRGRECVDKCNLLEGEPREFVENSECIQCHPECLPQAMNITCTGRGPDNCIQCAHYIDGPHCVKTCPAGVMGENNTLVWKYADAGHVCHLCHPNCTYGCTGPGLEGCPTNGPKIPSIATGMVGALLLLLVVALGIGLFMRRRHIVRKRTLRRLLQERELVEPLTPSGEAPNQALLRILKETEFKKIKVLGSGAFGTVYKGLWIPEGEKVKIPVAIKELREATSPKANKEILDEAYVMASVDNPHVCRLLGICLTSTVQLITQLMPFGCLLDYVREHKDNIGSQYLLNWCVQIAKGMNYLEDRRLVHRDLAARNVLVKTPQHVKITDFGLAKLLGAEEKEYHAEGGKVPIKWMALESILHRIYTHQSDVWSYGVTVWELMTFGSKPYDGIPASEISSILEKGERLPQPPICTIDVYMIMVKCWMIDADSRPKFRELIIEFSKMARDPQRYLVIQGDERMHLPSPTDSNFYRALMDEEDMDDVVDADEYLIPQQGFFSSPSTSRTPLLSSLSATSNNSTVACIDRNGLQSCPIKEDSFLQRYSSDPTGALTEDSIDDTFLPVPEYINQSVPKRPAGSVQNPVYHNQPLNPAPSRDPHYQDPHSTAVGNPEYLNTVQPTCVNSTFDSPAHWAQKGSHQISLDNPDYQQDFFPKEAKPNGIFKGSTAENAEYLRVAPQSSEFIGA
T3 sequence (Q05397 whole entry): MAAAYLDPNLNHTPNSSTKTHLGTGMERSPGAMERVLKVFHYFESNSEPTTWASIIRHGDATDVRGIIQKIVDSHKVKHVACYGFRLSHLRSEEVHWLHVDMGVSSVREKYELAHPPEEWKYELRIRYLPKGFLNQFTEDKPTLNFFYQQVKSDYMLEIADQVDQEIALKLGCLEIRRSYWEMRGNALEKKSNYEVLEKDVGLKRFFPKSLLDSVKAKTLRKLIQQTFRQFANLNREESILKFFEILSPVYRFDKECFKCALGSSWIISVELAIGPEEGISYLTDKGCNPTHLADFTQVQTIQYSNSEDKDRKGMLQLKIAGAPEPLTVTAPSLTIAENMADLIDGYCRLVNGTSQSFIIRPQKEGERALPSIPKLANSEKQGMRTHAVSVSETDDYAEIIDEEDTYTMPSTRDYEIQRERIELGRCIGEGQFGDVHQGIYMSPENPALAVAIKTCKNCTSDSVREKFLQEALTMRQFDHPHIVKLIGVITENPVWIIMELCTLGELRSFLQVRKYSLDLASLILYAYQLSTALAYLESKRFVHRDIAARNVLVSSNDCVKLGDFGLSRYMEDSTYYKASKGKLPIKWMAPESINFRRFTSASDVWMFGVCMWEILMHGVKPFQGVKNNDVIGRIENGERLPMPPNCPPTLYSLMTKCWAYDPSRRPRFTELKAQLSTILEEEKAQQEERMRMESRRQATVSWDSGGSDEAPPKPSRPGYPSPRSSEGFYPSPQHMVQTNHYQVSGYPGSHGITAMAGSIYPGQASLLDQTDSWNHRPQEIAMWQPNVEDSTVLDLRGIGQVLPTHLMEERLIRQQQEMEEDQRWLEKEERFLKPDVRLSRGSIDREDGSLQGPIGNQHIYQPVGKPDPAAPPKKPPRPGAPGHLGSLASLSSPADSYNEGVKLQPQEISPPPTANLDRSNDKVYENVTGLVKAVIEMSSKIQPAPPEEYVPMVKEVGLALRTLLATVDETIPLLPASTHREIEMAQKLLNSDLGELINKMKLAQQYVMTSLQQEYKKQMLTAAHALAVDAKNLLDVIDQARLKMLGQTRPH
T10 sequence (P54760 16-987): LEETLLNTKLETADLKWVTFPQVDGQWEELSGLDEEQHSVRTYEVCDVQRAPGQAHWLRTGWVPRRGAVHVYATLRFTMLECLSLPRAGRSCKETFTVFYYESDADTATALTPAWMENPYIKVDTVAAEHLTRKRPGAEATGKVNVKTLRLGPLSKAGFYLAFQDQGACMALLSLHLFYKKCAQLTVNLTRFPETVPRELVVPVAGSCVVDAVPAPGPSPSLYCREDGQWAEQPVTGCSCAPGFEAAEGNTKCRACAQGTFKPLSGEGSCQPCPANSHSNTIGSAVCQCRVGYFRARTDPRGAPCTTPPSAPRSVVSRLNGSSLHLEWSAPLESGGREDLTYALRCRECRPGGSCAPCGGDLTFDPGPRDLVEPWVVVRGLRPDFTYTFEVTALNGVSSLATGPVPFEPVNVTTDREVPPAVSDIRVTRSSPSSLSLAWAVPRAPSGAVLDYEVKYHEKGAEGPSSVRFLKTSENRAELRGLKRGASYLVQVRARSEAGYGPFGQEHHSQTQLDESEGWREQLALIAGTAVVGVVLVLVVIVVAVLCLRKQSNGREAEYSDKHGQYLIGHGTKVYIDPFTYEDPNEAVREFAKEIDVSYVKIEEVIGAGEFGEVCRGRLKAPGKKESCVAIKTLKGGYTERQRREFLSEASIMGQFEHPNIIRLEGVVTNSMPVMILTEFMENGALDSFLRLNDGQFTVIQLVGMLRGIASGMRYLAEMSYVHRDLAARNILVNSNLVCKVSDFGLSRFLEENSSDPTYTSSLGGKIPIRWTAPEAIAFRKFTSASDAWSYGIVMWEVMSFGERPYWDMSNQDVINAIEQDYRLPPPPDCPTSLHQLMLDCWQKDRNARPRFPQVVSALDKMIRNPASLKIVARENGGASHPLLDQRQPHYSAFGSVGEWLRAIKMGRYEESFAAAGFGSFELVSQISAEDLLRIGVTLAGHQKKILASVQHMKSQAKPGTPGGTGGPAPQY
T2 sequence (P12931 whole entry): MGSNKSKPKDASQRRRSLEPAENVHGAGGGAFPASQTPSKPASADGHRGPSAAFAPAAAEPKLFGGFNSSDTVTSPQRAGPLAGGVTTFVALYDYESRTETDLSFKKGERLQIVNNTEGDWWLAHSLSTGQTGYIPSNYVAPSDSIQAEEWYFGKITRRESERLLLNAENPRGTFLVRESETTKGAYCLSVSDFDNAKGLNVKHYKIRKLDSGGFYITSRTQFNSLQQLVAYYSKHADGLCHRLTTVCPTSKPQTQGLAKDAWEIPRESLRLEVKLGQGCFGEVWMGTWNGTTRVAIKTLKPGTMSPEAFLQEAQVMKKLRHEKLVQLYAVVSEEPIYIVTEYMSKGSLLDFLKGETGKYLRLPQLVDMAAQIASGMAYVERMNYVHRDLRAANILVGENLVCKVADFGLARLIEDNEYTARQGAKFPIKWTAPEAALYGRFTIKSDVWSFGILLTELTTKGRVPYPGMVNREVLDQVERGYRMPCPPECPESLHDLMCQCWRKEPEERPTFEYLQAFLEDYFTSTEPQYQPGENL
T7 sequence (P08581 25-1390): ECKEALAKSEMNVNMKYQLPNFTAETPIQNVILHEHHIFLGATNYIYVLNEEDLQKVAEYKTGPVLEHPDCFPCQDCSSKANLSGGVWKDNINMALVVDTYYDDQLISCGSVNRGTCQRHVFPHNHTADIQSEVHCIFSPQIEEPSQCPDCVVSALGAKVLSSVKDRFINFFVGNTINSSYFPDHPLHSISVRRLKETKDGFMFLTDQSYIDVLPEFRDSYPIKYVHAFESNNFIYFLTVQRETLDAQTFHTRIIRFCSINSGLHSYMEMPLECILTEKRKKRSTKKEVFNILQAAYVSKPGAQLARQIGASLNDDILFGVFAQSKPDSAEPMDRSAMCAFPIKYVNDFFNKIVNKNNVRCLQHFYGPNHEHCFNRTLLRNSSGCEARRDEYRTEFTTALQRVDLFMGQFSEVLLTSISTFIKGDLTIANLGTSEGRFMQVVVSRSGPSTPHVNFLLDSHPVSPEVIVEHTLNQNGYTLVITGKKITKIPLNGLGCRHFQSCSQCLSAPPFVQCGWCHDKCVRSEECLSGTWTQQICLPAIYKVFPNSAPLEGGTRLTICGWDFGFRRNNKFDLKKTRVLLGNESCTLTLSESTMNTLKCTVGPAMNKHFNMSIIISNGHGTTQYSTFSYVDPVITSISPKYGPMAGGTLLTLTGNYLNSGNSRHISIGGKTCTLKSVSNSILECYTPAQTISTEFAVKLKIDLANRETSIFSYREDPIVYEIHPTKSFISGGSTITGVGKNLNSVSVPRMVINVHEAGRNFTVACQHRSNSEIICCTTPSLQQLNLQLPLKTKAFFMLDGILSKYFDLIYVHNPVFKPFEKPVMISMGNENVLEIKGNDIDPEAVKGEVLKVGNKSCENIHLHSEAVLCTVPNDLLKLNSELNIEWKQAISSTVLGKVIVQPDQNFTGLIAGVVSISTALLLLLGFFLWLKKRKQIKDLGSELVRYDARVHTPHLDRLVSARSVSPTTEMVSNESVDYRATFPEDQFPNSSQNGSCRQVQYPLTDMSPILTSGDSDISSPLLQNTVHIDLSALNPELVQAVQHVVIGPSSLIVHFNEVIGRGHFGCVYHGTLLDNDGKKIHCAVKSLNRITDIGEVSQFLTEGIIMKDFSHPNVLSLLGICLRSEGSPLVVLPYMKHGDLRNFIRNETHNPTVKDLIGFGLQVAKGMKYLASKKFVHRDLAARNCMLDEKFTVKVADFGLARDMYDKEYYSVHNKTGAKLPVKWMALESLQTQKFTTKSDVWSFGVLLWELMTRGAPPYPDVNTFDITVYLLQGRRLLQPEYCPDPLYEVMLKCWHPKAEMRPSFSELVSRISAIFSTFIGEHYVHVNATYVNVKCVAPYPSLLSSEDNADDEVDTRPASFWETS

In the case of `O=C1CCCc2cc(-c3ccnc(Nc4ccccc4)n3)ccc2N1` [Compound 2a, 7-(2-Anilinopyrimidin-4-yl)-1,3,4,5-tetrahydro-2H-1-benzazepin-2-one], the IC50 (IGF1-R) is reported as > 100 µM, the IC50 (SRC) is reported as 74 µM and the IC50 (FAK) is reported as > 100 µM. For the same compound, the IC50 (PDK1) was > 100 µM, the IC50 (INS-R) was > 100 µM and the IC50 (EGF-R) was > 100 µM. For the same compound, the IC50 (MET) was > 100 µM, the IC50 (CK2-alpha1) was > 100 µM and the IC50 (CDK2/CycA) was 60 µM. The IC50 (EPHB4) was > 100 µM, the IC50 (FLT3) was 16 µM and the IC50 (AKT1) was > 100 µM. For the same compound, the IC50 (PAK4) was > 100 µM and the IC50 (PLK1) was > 100 µM.
